# Source: patent US9617262B2, “Antibacterial cyclopental[C]pyrrole substituted 3,4-dihydro-1H-[1,8]naphthyridinones” (Janssen Sciences Ireland UC, priority 2011, dated 2017)
# Tests used:
# [1] = target: S. aureus ATCC 29213 FabI (Staphylococcus aureus (strain MRSA252), UniProt Q6GI75); assay: Staphylococcus aureus FabI enzyme inhibition assay; type: biochemical; settings: pH 6.5, 30 minutes at room temperature
# Method: FabI enzyme inhibition assays were carried out in half-area, 384-well microtitre plates. Compounds were evaluated in 40-μl assay mixtures containing 100 mM NaADA, pH 6.5 (ADA=N-[2-acetamido]-2iminodiacetic acid), 250 μM crotonoyl-CoA, 625 μM NADH and 50 μg/ml S. aureus ATCC 29213 FabI. Inhibitors were typically varied over the range of 50 to 0.39 μM. The reaction mixtures were incubated for 30 minutes at room temperature and the reaction was stopped by adding 200 mM Tris buffer (pH 9.0) to create a pH-shift. The consumption of NADH was monitored by measuring the change in absorbance at […]. By comparing sample readings to those of negative (absence of compound) and positive (absence of enzyme) controls, the percent inhibition of enzymatic activity of the compounds was determined. A best-fit curve is fitted by a minimum of squares method. From this an IC50-value (expressed in μg/ml), resulting in 50% inhibition of enzymatic activity, was obtained.
# Human HelaM cells = assay: Cytotoxicity MTT assay (TOX HELAM); type: cell-based; settings: 72 hours
# Method: Cytotoxicity of the compounds was evaluated using the MTT assay. Human HelaM cells grown in 96-well plates were exposed to serial dilutions of the tested compounds (final volume of 0.2 ml) and incubated for 72 hours at 37° C. and 5% CO2. Inhibitors are typically varied over the range of 25 to 0.8 μM. The final DMSO concentration in the assay is 0.5%. MTT (3-(4,5-Dimethylthiazol-2-yl)-2,5-diphenyltetrazolium bromide, a tetrazole) was added and reduced to purple formazan only in living cells. Solubilization of the formazan crystals was achieved by adding 100 μl 2-propanol. Cell viability was determined by measuring the absorbance of the reduced formazan, giving a purple color, at 540 nm and 690 nm. The absorbance measured at 690 nm was automatically subtracted from the absorbance at 540 nm, to eliminate the effects of non-specific absorption. The percent cytotoxicity achieved by the compounds was calculated according to standard methods. Cytotoxicity is reported as CC50, the concentration that causes a 50% reduction in cell viability.
# The results are depicted in the table D2 below (TOX HELAM).
# S. aureus = assay: Antibacterial susceptibility testing: IC90 determination with 10% human serum (STA + 10% HS); type: cell-based, Staphylococcus aureus; settings: human serum at a final concentration of 10%
# Method: (§1) The following bacteria were used: Staphylococcus aureus ATCC 29213, methicillin-resistant Staphylococcus aureus (MRSA) ATCC 700788 and Escherichia coli ATCC 35218. The bacteria used in this study were grown overnight in flasks containing 100 ml Mueller-Hinton broth (Difco cat. nr. 0757-17) in sterile de-ionized water, with shaking, at 37° C. Stocks were store at −70° C. until use.
# (§2) Bacteria were incubated on a tryptic soy agar plate containing 5% sheep blood (Becton Dickinson cat. nr. 254053) for 18-24 hours at 35° C. in aerobic conditions (first passage). For the second passage, fresh Mueller-Hinton broth is inoculated with 5-10 colonies and grown overnight at 35° C. until turbidity (reaching log-phase) in aerobic conditions is reached. The bacterial suspension is then adjusted to 0.5 McFarland density and further diluted 1:100 in Mueller Hinton broth medium. This is used as inoculum.
# (§3) MIC assays were performed by the broth microdilution method in a 96-well format (flat-bottom microtitre plates) with a final volume of 0.1 ml Mueller Hinton broth containing two-fold serial dilutions of compounds and inoculated with 5×10^5 CFU/ml of bacteria (standard inoculum size according to CLSI guidelines). Inhibitors are typically varied over the range of 63 to 0.49 μM. The final DMSO concentration in the assay was 1.25% (maximum tolerable DMSO concentration=6%). In the assays where the effect of human serum on the activity of the compounds against S. aureus was tested, human serum was added at a final concentration of 10%. The plates were incubated at 35° C. for 16-20 hours. At the end of incubation the bacterial growth was quantified fluorometrically. For this, resazurin was added to all wells and the plates were re-incubated. The incubation time is dependent on the type of bacteria. A change in color from blue to pink indicated the growth of bacteria. The fluorescence was read in computer-controlled fluorometer (Fluoroskan Ascent FL, Labsystems) at an excitation wavelength 540 nm and an emission wavelength of 590 nm. The % growth inhibition achieved by the compounds was calculated according to standard methods. The IC90 (expressed in μg/ml) was defined as the 90% inhibitory concentration for bacterial growth. A panel of reference compounds were simultaneously tested for QC approval.
# The results are depicted in the table D2 below (STA+10% HS).
# [2] = test system: Staphylococcus aureus ATCC 29213; assay: Antibacterial susceptibility testing: IC90 determination (STA); type: cell-based; settings: STA ATCC 29213, 90% inhibitory concentration for bacterial growth
# Method: as §1, §2, §3
smiles,measurement,setting,value
"O=C1CCc2cc(/C=C/C(=O)N3C[C@H]4CC(c5ccncc5)=C[C@H]4C3)cnc2N1 (single isomer, unassigned) [compound 40]",FabI IC50,[1],0.39 µg/mL
C#CN1C[C@@H]2CN(C(=O)/C=C/c3cnc4c(c3)CCC(=O)N4)C[C@@H]2C1 [compound 30],FabI IC50,[1],2.66 µg/mL
O=C1CCc2cc(/C=C/C(=O)N3C[C@@H]4CN(c5nccs5)C[C@@H]4C3)cnc2N1 [compound 24],TOX HELAM (222.125) CC50,Human HelaM cells,>3.9549 µg/mL
same,STA + 10% HS (361.169) IC90,S. aureus,2.44 µg/mL
same,FabI IC50,[1],0.58 µg/mL
same,STA (361.159) IC90,[2],4.05 µg/mL
CC1=CC2CN(C(=O)/C=C/c3cnc4c(c3)CCC(=O)N4)CC2C1 (stereo not drawn) [compound 52],FabI IC50,[1],0.50 µg/mL
O=C1CCc2cc(/C=C/C(=O)N3CC4CC(F)(F)CC4C3)cnc2N1 (stereo not drawn) [compound 34],FabI IC50,[1],1.67 µg/mL
COc1ccsc1C1=CC2CN(C(=O)/C=C/c3cnc4c(c3)CCC(=O)N4)CC2C1 (stereo not drawn) [compound 72],FabI IC50,[1],0.43 µg/mL
O=C1CCc2cc(/C=C/C(=O)N3CC4C=C(c5nccs5)CC4C3)cnc2N1 (stereo not drawn) [compound 32],FabI IC50,[1],0.46 µg/mL
O=C1CCc2cc(/C=C/C(=O)N3C[C@@H]4CN(c5cccc(Cl)c5)C[C@@H]4C3)cnc2N1 [compound 36],FabI IC50,[1],0.93 µg/mL
O=C1CCc2cc(/C=C/C(=O)N3CC4C=C(c5ccccc5F)CC4C3)cnc2N1 (stereo not drawn) [compound 21],TOX HELAM (222.125) CC50,Human HelaM cells,>4.0346 µg/mL
same,STA + 10% HS (361.169) IC90,S. aureus,0.29 µg/mL
same,FabI IC50,[1],0.65 µg/mL
same,STA (361.159) IC90,[2],0.13 µg/mL
O=C1CCc2cc(/C=C/C(=O)N3C[C@@H]4CC(c5ccsc5)=C[C@@H]4C3)cnc2N1 [compound 45],FabI IC50,[1],0.45 µg/mL
CC(=O)c1ccc(C2=CC3CN(C(=O)/C=C/c4cnc5c(c4)CCC(=O)N5)CC3C2)s1 (stereo not drawn) [compound 62],FabI IC50,[1],0.44 µg/mL
Cc1cscc1C1=CC2CN(C(=O)/C=C/c3cnc4c(c3)CCC(=O)N4)CC2C1 (stereo not drawn) [compound 60],FabI IC50,[1],0.59 µg/mL
O=C1CCc2cc(/C=C/C(=O)N3C[C@@H]4CN(c5ccc(Cl)cc5)C[C@@H]4C3)cnc2N1 [compound 35],FabI IC50,[1],1.25 µg/mL
Cn1nccc1C1=CC2CN(C(=O)/C=C/c3cnc4c(c3)CCC(=O)N4)CC2C1 (stereo not drawn) [compound 15],TOX HELAM (222.125) CC50,Human HelaM cells,>9.783 µg/mL
same,STA + 10% HS (361.169) IC90,S. aureus,0.72 µg/mL
same,FabI IC50,[1],0.48 µg/mL
same,STA (361.159) IC90,[2],0.74 µg/mL
O=C1CCc2cc(/C=C/C(=O)N3C[C@@H]4CN(c5cccs5)C[C@@H]4C3)cnc2N1 [compound 4],FabI IC50,[1],0.70 µg/mL
O=C1CCc2cc(/C=C/C(=O)N3CC4CC(n5cncn5)CC4C3)cnc2N1 (stereo not drawn) [compound 37],FabI IC50,[1],3.37 µg/mL
COc1ccccc1N1C[C@H]2CN(C(=O)/C=C/c3cnc4c(c3)CCC(=O)N4)C[C@H]2C1 [compound 8],TOX HELAM (222.125) CC50,Human HelaM cells,>10.5122 µg/mL
same,STA + 10% HS (361.169) IC90,S. aureus,1.52 µg/mL
same,FabI IC50,[1],0.50 µg/mL
same,STA (361.159) IC90,[2],1.15 µg/mL
O=C1CCc2cc(/C=C/C(=O)N3CC4C=C(c5ccco5)CC4C3)cnc2N1 (stereo not drawn) [compound 19],TOX HELAM (222.125) CC50,Human HelaM cells,>9.43 µg/mL
same,STA + 10% HS (361.169) IC90,S. aureus,0.12 µg/mL
same,FabI IC50,[1],~0.62 µg/mL
same,STA (361.159) IC90,[2],0.18 µg/mL
O=C1CCc2cc(/C=C/C(=O)N3C[C@H]4CC(Oc5ccccc5)C[C@H]4C3)cnc2N1 (stereo partly drawn) [compound 54],FabI IC50,[1],1.84 µg/mL
O=C1CCc2cc(/C=C/C(=O)N3CC4CC(n5ccnn5)CC4C3)cnc2N1 (stereo not drawn) [compound 38],FabI IC50,[1],2.08 µg/mL
O=C1CCc2cc(/C=C/C(=O)N3C[C@@H]4CN(c5ccccc5Cl)C[C@@H]4C3)cnc2N1 [compound 18],TOX HELAM (222.125) CC50,Human HelaM cells,>10.6233 µg/mL
same,STA + 10% HS (361.169) IC90,S. aureus,0.37 µg/mL
same,FabI IC50,[1],0.44 µg/mL
same,STA (361.159) IC90,[2],0.21 µg/mL
Cc1ccccc1N1C[C@H]2CN(C(=O)/C=C/c3cnc4c(c3)CCC(=O)N4)C[C@H]2C1 [compound 17],TOX HELAM (222.125) CC50,Human HelaM cells,>10.1103 µg/mL
same,STA + 10% HS (361.169) IC90,S. aureus,0.38 µg/mL
same,FabI IC50,[1],0.38 µg/mL
same,STA (361.159) IC90,[2],0.37 µg/mL
"O=C1CCc2cc(/C=C/C(=O)N3C[C@H]4CC(c5ccccc5)=C[C@H]4C3)cnc2N1 (single isomer, unassigned) [compound 13]",TOX HELAM (222.125) CC50,Human HelaM cells,>9.683 µg/mL
same,STA + 10% HS (361.169) IC90,S. aureus,0.43 µg/mL
same,FabI IC50,[1],0.39 µg/mL
same,STA (361.159) IC90,[2],0.31 µg/mL
O=C1CCc2cc(/C=C/C(=O)N3C[C@@H]4CN(c5cccnc5)C[C@@H]4C3)cnc2N1 [compound 20],FabI IC50,[1],1.07 µg/mL
O=C1CCc2cc(/C=C/C(=O)N3CC4C=C(c5ccccc5Cl)CC4C3)cnc2N1 (stereo not drawn) [compound 9],TOX HELAM (222.125) CC50,Human HelaM cells,4.77 µg/mL
same,STA + 10% HS (361.169) IC90,S. aureus,0.69 µg/mL
same,FabI IC50,[1],0.75 µg/mL
same,STA (361.159) IC90,[2],0.33 µg/mL
Cc1ccc(C2=CC3CN(C(=O)/C=C/c4cnc5c(c4)CCC(=O)N5)CC3C2)o1 (stereo not drawn) [compound 57],FabI IC50,[1],0.62 µg/mL
O=C1CCc2cc(/C=C/C(=O)N3C[C@H]4CN(Cc5cccs5)C[C@H]4C3)cnc2N1 [compound 6],FabI IC50,[1],3.73 µg/mL
O=C1CCc2cc(/C=C/C(=O)N3CC4CC(n5cccn5)CC4C3)cnc2N1 (stereo not drawn) [compound 29],FabI IC50,[1],1.04 µg/mL
N#Cc1ccccc1C1=CC2CN(C(=O)/C=C/c3cnc4c(c3)CCC(=O)N4)CC2C1 (stereo not drawn) [compound 23],TOX HELAM (222.125) CC50,Human HelaM cells,>10.3108 µg/mL
same,STA + 10% HS (361.169) IC90,S. aureus,0.79 µg/mL
same,FabI IC50,[1],0.41 µg/mL
same,STA (361.159) IC90,[2],0.67 µg/mL
O=C1CCc2cc(/C=C/C(=O)N3CC4C=C(c5cccs5)CC4C3)cnc2N1 (stereo not drawn) [compound 3],TOX HELAM (222.125) CC50,Human HelaM cells,>3.256 µg/mL
same,STA + 10% HS (361.169) IC90,S. aureus,0.06 µg/mL
same,FabI IC50,[1],0.29 µg/mL
same,STA (361.159) IC90,[2],0.03 µg/mL
Cn1cc(C2=CC3CN(C(=O)/C=C/c4cnc5c(c4)CCC(=O)N5)CC3C2)cn1 (stereo not drawn) [compound 27],FabI IC50,[1],0.6 µg/mL
O=C1CCc2cc(/C=C/C(=O)N3C[C@@H]4CN(S(=O)(=O)c5ccccc5)C[C@@H]4C3)cnc2N1 [compound 33],FabI IC50,[1],3.06 µg/mL
COC1CC2CN(C(=O)/C=C/c3cnc4c(c3)CCC(=O)N4)CC2C1 (stereo not drawn) [compound 31],FabI IC50,[1],1.42 µg/mL
O=C1CCc2cc(/C=C/C(=O)N3CC4CC(n5nccn5)CC4C3)cnc2N1 (stereo not drawn) [compound 39],FabI IC50,[1],0.56 µg/mL
Cc1ccccc1C1=CC2CN(C(=O)/C=C/c3cnc4c(c3)CCC(=O)N4)CC2C1 (stereo not drawn) [compound 11],TOX HELAM (222.125) CC50,Human HelaM cells,6.19 µg/mL
same,STA + 10% HS (361.169) IC90,S. aureus,1.76 µg/mL
same,FabI IC50,[1],0.48 µg/mL
same,STA (361.159) IC90,[2],0.37 µg/mL
O=C1CCc2cc(/C=C/C(=O)N3CC4C=C(c5cccnc5)CC4C3)cnc2N1 (racemic) [compound 26],TOX HELAM (222.125) CC50,Human HelaM cells,>3.8646 µg/mL
same,STA + 10% HS (361.169) IC90,S. aureus,1.11 µg/mL
same,FabI IC50,[1],0.41 µg/mL
same,STA (361.159) IC90,[2],1.11 µg/mL
